Measured values from PMC9913425, “Pentacyclic Triterpenoids-Based Ionic Compounds: Synthesis, Study of Structure–Antitumor Activity Relationship, Effects on Mitochondria and Activation of Signaling Pathways of Proliferation, Genome Reparation and Early Apoptosis” (Cancers, 2023).

What was measured:
[1] = test system: A2780; experiment: In vitro cytotoxicity, IC50 by flow cytometry (Guava ViaCount); type: cell-based, human
Summary of the method: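 Suspension lines kept in RPMI 1640 with 10% FBS and […] at 37 °C, 5% CO2; cells seeded at 5 × 10^4 per well and incubated overnight before compound exposure. Viability counted by flow cytometry with Guava ViaCount staining to derive IC50.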

[2] = test system: mitochondria of Jurkat tumor cells; experiment: Mitochondrial damage (MitoSense Red staining); type: cell-based; settings: compound at IC50 concentration, incubation 2 h
[3] = test system: Jurkat tumor cells; experiment: Release of cytochrome c from mitochondria (anti-cytochrome C FITC, cytofluorimetry); type: cell-based; settings: compound at IC50, incubation 3 h
Procedure: Staurosporine (an inhibitor of most kinases in the cell) was taken as a control compound.
Figure 2 Release of cytochrome C from mitochondria under the influence of ionic liquids in Jurkat tumor cells. Anti-cytochrome C FITC antibodies were used for staining. […] Incubation with test compounds was 3 h. TEXT PRINTED IN THE PICTURE: (b) 344: Negative 30.82%; Positive 64.67% | (c) 214: Negative 40.58%; Positive 56.16% | (d) 346: Negative 19.43%; Positive 76.96% DOUBTS OF THE COPYIST ABOUT THIS PICTURE: The picture prints only sample codes (344, 214, 346; each followed by '/ E3'), not compound numbers or names; these codes are used as labels. / Panel a (sample code 211-4h, Negative 5.82%, Positive 93.68%) appears to be an untreated control, not a substance, and is left out. / Print is small: b, Negative 30.82% (8 or 6); c, Positive 56.16% (6 or 8); d, Positive 76.96% (6 or 8, 9 or 8).

[4] = test system: STAT5; experiment: Luminex xMAP Multi-Pathway 9-plex, tyrosine-phosphorylated STAT5; type: cell-based; settings: Jurkat cells; 12a 0.006 µM, 13d 0.004 µM per 100,000 cells; lasting up to 12 h
From the text: The determination of proteins in a cell by Luminex xMAP technology is characterized by the presence of multiplex multiparametric analysis with the simultaneous use of a multiplex of antibodies with a fluorescent label and magnetic particles, thereby resulting in an increase in the sensitivity of the technique and expansion of the dynamic range, as well as an increase in detection accuracy. Luminex XMAP technology provides a simultaneous analysis of a sufficient number of different proteins in various types of biological fluids (plasma, serum, cerebrospinal fluid, follicular fluid, tissue lysate, etc.) and in cell supernatants. […]
Magnetic microspheres (stained inside with two fluorescent dyes) in combination with monoclonal antibodies against the analyzed analytes (the main intracellular kinases in this case) are incubated with the samples and standards; then, the samples/standards are incubated with biotinylated monoclonal antibodies against the analyzed analytes and, finally, with a solution of streptavidin–phycoerythrin. The Luminex technology identifies the different proteins present in each well and converts the mean fluorescence intensity (MFI) of each measured cytokine to pg/mL using software and standard curves. […]
The specific role of STAT3 and STAT5 was assessed by changes in the content of tyrosine-phosphorylated forms of these proteins (STAT3(ph) and STAT5(ph)). […]

[5] = test system: ATR kinase; experiment: Luminex xMAP DNA Damage/Genotoxicity panel, ATR kinase content; type: cell-based; settings: Jurkat cells; 12a 0.006 µM, 13d 0.004 µM per 100,000 cells; 6 and 12 h
[6] = test system: Chk1; experiment: Luminex xMAP DNA Damage/Genotoxicity panel, phosphorylated Chk1; type: cell-based; settings: Jurkat cells; 12a 0.006 µM, 13d 0.004 µM per 100,000 cells; 6 and 12 h
From the text: [Worded in the source for another target; used here, by the source, with some conditions changed.] (§1) The determination of proteins in a cell by Luminex xMAP technology is characterized by the presence of multiplex multiparametric analysis with the simultaneous use of a multiplex of antibodies with a fluorescent label and magnetic particles, thereby resulting in an increase in the sensitivity of the technique and expansion of the dynamic range, as well as an increase in detection accuracy. Luminex XMAP technology provides a simultaneous analysis of a sufficient number of different proteins in various types of biological fluids (plasma, serum, cerebrospinal fluid, follicular fluid, tissue lysate, etc.) and in cell supernatants. Consequently, multiplexing saves time/costs and ensures the same conditions for the measurements, which is essential for significance and statistical processing.
(§2) Magnetic microspheres (stained inside with two fluorescent dyes) in combination with monoclonal antibodies against the analyzed analytes (the main intracellular kinases in this case) are incubated with the samples and standards; then, the samples/standards are incubated with biotinylated monoclonal antibodies against the analyzed analytes and, finally, with a solution of streptavidin–phycoerythrin. The Luminex technology identifies the different proteins present in each well and converts the mean fluorescence intensity (MFI) of each measured cytokine to pg/mL using software and standard curves. This approach is successfully applied in fundamental and clinical research. In this work, we analyzed various protein analytes that make up the phosphorylated and non-phosphorylated fractions of the main kinases in the signaling pathways: CREB, JNK, NFkB, p38, ERK1/2, Akt, p70S6K, STAT3, STAT5 proteins in six samples of lysates of Jurkat tumor cells by Luminex technology (MILLIPLEX® MAP 9-Plex Multi-Pathway 9-plex Magnetic Bead Kit).

[7] = test system: γH2AX; experiment: Luminex xMAP DNA Damage/Genotoxicity panel, phosphorylated γH2AX; type: cell-based; settings: Jurkat cells; 6 and 12 h
From the text: as §1, with “processing. Simultaneous measurement of cytokines by bead multiplex analysis has certain similarities with ELISA, in particular the use of antibodies, but has a fundamental difference in using magnetic fluorescent beads coupled to antikinase monoclonal antibodies.” for “processing.”
as §2
Phosphorylation of histone H2AX at serine 139 (γH2AX) is an early stage in the cellular response to DNA damage, when the damage brings about formation of a double-strand break (DSB). γH2AX foci, considered as markers of DNA double-strand breaks, are easily detected by immunofluorescence microscopy and flow cytometry. The two main signaling pathways ATM/Chk2 and ATR/Chk1 respond to DNA damage and both lead to H2AX phosphorylation, but the ATR/Chk1 pathway causes γH2AX formation to a much lesser extent. The role of γH2AX in DNA repair is also discussed.
Incubation time with the test compounds was 6 and 12 h. p < 0.001 (***).

[8] = test system: p21; experiment: Luminex xMAP panel, p21 protein content; type: cell-based; settings: Jurkat cells; 12a 0.006 µM, 13d 0.004 µM per 100,000 cells; first 6 h

| SMILES | IC50 ([1]; Homo sapiens, A2780, A2780 cells) [nM] | Mito-Damage (%) [2] [%] | cytochrome c release from mitochondria (cytochrome C Negative cells) [3] [%] | increase in the content of STAT5 [4] [fold] | level of ATR kinase [5] | content of phosphorylated checkpoint kinase Chk1 [6] | level of γH2AX (accumulation) [7] | expression of p21 protein [8] | IC50 ([1]; A2780 cells) [nM] |
| --- | --- | --- | --- | --- | --- | --- | --- | --- | --- |
| CC1(C)CC[C@]2(C(=O)OCCCCCC[n+]3ccccc3)CC[C@]3(C)C(=CCC4[C@@]5(C)CC[C@H](O)C(C)(C)C5CC[C@]43C)C2C1 (stereo partly drawn) [12a, 1-(6-{[(3β)-3-Hydroxyolean-12-en-28-oyl]oxy}hexyl)-pyridinium bromide] | 21 ± 2 | 97.89 | 40.58 | 3 | significant increase | significantly decreases | low levels | significantly increased | – |
| CC(=O)[O-].C[n+]1ccn(CCCCCCOC(=O)[C@]23CCC(C)(C)CC2C2=CCC4[C@@]5(C)CC[C@H](O)C(C)(C)C5CC[C@@]4(C)[C@]2(C)CC3)c1 (stereo partly drawn) [13d, 1-(6-{[(3β)-3-Hydroxyolean-12-en-28-oyl]oxy}hexyl)-3-methylimidazolium Acetate] | – | 97.47 | 19.43 | 3 | significant increase | significantly decreases | low levels | significantly increased | 16 ± 2 |
